Biological target: T1, GPVI (platelet glycoprotein VI) (Homo sapiens, UniProt Q9HCN6)
T1 construct: gene GP6; native receptor on washed human platelets
T1 sequence (Q9HCN6 21-339): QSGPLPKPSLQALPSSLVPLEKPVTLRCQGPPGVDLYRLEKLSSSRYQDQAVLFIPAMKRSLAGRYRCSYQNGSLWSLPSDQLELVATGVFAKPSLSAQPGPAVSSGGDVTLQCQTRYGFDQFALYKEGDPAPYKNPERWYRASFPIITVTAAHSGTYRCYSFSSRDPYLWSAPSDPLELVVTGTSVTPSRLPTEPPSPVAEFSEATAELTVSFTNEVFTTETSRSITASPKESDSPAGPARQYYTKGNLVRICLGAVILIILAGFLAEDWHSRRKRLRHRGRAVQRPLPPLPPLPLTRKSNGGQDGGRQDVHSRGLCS
Test: Inhibition of CRP-XL/collagen-induced Ca2+ release and aggregation in washed human platelets; rightward shift of CRP-XL curve
Type: cell-based
Conditions: read-out: Ca^2+ RELEASE / CRP

CN(C)CCCSc1ccccc1NC(=O)/C=C/c1ccccc1 [cinanserin]
IC50: 40 µM

— article PMC4074120, “Discovery of Novel GPVI Receptor Antagonists by Structure-Based Repurposing” (PLoS ONE, 2014)
